Data from patent US20070116781A1, “Hydrogen Cyanamide Pesticide Formulations” (priority 2005, published 2007).

Tests used:
spiral nematodes = assay: Nematicidal activity in covered pots of naturally infested silt loam, soybean planted after 12 days; format: in vivo, Helicotylenchus dihystera
Experimental: (§1) In this study, the soil was naturally infested with four species of nematodes, two of which were deleterious and two beneficial, and observations were made of both the nematode survival and the growth of the soybean plants.
(§2) Stock solutions of hydrogen cyanamide at 1.0% by weight and propionic acid at 5.0% by weight, both in water, were prepared, the hydrogen cyanamide from a phosphate-buffered 50% aqueous solution. Planting pots measuring 10 cm in diameter, each containing 1 kg of soil, were used. The soil was silt loam from a cotton field, pH 6.2, CEC<10 meq/100 g soil, organic matter<1.0%. The treatment chemicals were combined in various dilutions such that 100 mL of the combined dilutions contained the desired amount of each chemical for each test. The combined dilutions were then applied to the soil surface in each pot, at 100 mL of combined dilution per pot. The dilutions were selected to achieve target application rates expressed in milligrams of the treatment chemical per kilogram of soil, with 1 milligram of treatment chemical per kilogram of soil being approximately equal to 2 kilograms of the chemical per hectare of soil or 2 pounds of the chemical per acre of soil.
(§3) Immediately after the treatment chemicals were applied, each pot was covered by a thick (1.5 mil), clear, low-density polyethylene bag. After twelve days, the bags were removed and soil samples were taken from each pot for nematological analysis by the salad bowl technique of Rodriguez-Kabana, R., and M. H. Pope, Nematropica, 11: 175-186 (1981). The results of these analyses are listed in Table I as pre-plant test results. The results for the two deleterious nematodes are also shown as plots of the number of nematodes vs. the hydrogen cyanamide application rate in FIGS. 1 and 2.
(§4) After the polyethylene bags were removed, each pot was planted with Hutcheson soybean seeds at 5 seeds per pot, and the seeds were allowed to germinate and the plants to grow for 45 days. The resulting plants were then removed from the pots, the root systems were washed, and the number of plants in each pot was determined. The weights of both fresh shoots and roots were also determined as well as the shoot height and the relative health of the root system, using a subjective index. Soil samples were also collected, and the soil and roots were incubated to determine nematode populations. Treatments were arranged in randomized complete block design with seven replications per treatment, and statistical evaluation of the data was performed with analyses of variance (ANOVA) and standard regression procedures. Fischer's Least Significant Difference at p 0.05 was calculated when appropriate. The results of these tests are listed as final test results in Tables II, III, and IV, with nematode populations in the soil listed in Table II, the nematode populations in the root systems in Table III, and the plant and root parameters of the soybean shoots in Table IV.

microbivorous nematodes = assay: Effect on beneficial nematodes in covered pots of silt loam; format: in vivo
Experimental: as §1, §2, §3, §4

all weeds = assay: Herbicidal activity, phosphate-free cyanamide and propionic acid, post-emergence, uncovered pots; format: in vivo
Text: (§5) The procedures in this example differed from those of Example 2, however, by the use of hydrogen cyanamide crystals free of phosphate ion to prepare the aqueous hydrogen cyanamide solution, by the use of post-emergence application, and by the omission of any covering of the pots during any part of the test. Observations were made for total weed growth, and individual observations were also made for yellow nutsedge, crabgrass, sicklepod, and momingglory. Stock solutions of hydrogen cyanamide at 1.25% by weight and propionic acid at 5.0% by weight, both in water, were prepared as before, except that the hydrogen cyanamide solution, as noted above, was prepared by dissolving hydrogen cyanamide crystals in water in the absence of phosphate ion. […] The weeds were allowed to grow for three weeks before the treatment chemicals were applied. […] Data analyses were performed in the same manner as Examples 1 and 2. Table IX lists the results in weeds per pot for all weeds, Table X for yellow nutsedge, Table XI for crabgrass, Table XII for sicklepod, and Table XIII for morningglory, all both with propionic acid alone at various application […]

yellow nutsedge = assay: as above; format: in vivo, Cyperus esculentus
Text: as §5

morningglory = assay: as above; format: in vivo, Ipomoea spp.
Text: The procedures in this example differed from those of Example 2, however, by the use of hydrogen cyanamide crystals free of phosphate ion to prepare the aqueous hydrogen cyanamide solution, by the use of post-emergence application, and by the omission of any covering of the pots during any part of the test. Observations were made for total weed growth, and individual observations were also made for yellow nutsedge, crabgrass, sicklepod, and momingglory. Stock solutions of hydrogen cyanamide at 1.25% by weight and propionic acid at 5.0% by weight, both in water, were prepared as before, except that the hydrogen cyanamide solution, as noted above, was prepared by dissolving hydrogen cyanamide crystals in water in the absence of phosphate ion. […] The weeds were allowed to grow for three weeks before the treatment chemicals were applied. […] Data analyses were performed in the same manner as Examples 1 and 2. Table IX lists the results in weeds per pot for all weeds, Table X for yellow nutsedge, Table XI for crabgrass, Table XII for sicklepod, and Table XIII for morningglory, all both with propionic acid alone at various application rates and with […]

[1] = microbivorous nematodes, in vivo, 57 d, pH 6.2
[2] = 6 d after treatment, C2H5CO2H 100 mg/kg soil
[3] = 6 d after treatment, C2H5CO2H 200 mg/kg soil
[4] = 6 d after treatment, C2H5CO2H 300 mg/kg soil
[5] = 6 d after treatment, C2H5CO2H 400 mg/kg soil
[6] = 6 d after treatment, C2H5CO2H 500 mg/kg soil
[7] = 13 d after treatment, C2H5CO2H 100 mg/kg soil
[8] = 13 d after treatment, C2H5CO2H 200 mg/kg soil
[9] = 13 d after treatment, C2H5CO2H 300 mg/kg soil
[10] = 13 d after treatment, C2H5CO2H 400 mg/kg soil
[11] = 13 d after treatment, C2H5CO2H 500 mg/kg soil
[12] = 20 d after treatment, C2H5CO2H 100 mg/kg soil
[13] = 20 d after treatment, C2H5CO2H 200 mg/kg soil
[14] = 20 d after treatment, C2H5CO2H 300 mg/kg soil
[15] = 20 d after treatment, C2H5CO2H 400 mg/kg soil
[16] = 20 d after treatment, C2H5CO2H 500 mg/kg soil
[17] = 12 d after treatment, pre-plant, cyanamide 20 mg/kg soil
[18] = 12 d after treatment, pre-plant, cyanamide 40 mg/kg soil
[19] = 12 d after treatment, pre-plant, cyanamide 60 mg/kg soil
[20] = 12 d after treatment, pre-plant, cyanamide 80 mg/kg soil
[21] = 12 d after treatment, pre-plant, cyanamide 120 mg/kg soil
[22] = 57 d after treatment, 45 d after planting, cyanamide 20 mg/kg soil
[23] = 57 d after treatment, 45 d after planting, cyanamide 40 mg/kg soil
[24] = 57 d after treatment, 45 d after planting, cyanamide 60 mg/kg soil
[25] = 57 d after treatment, 45 d after planting, cyanamide 80 mg/kg soil
[26] = 57 d after treatment, 45 d after planting, cyanamide 120 mg/kg soil
[27] = 57 d after treatment, cyanamide 20 mg/kg soil
[28] = 57 d after treatment, cyanamide 40 mg/kg soil
[29] = 57 d after treatment, cyanamide 60 mg/kg soil
[30] = 57 d after treatment, cyanamide 80 mg/kg soil
[31] = 57 d after treatment, cyanamide 120 mg/kg soil
[32] = 6 d after treatment, cyanamide 150 mg/kg soil
[33] = 13 d after treatment, cyanamide 150 mg/kg soil
[34] = 20 d after treatment, cyanamide 150 mg/kg soil
[35] = hydrogen cyanamide 125 mg/kg of soil alone, all intervals

CCC(=O)O [C2H5CO2H, propionic acid]
Surviving Nematodes: Spiral (spiral nematodes; 12 d after treatment, pre-plant, C2H5CO2H 250 mg/kg soil): 47 per 100 mL of soil | Surviving Nematodes: Spiral (spiral nematodes; 57 d after treatment, 45 d after planting, C2H5CO2H 250 mg/kg soil): 12.4 per 100 mL of soil | Surviving Nematodes in Root System: Spiral (spiral nematodes; 57 d after treatment, C2H5CO2H 250 mg/kg soil): 25.9 Per Pot | Surviving Nematodes: Microbivorous (microbivorous nematodes; microbivorous nematodes, in vivo, 12 d, pH 6.2): 66 per 100 mL of soil | Surviving Nematodes in Root System: Microbivorous (microbivorous nematodes; [1]): 96 Per Pot | Surviving Nematodes: Microbivorous (microbivorous nematodes; [1]): 45 per 100 mL of soil | Weeds Per Pot: All Weeds (all weeds; [2]): 22.4 | Weeds Per Pot: All Weeds (all weeds; [3]): 12.6 | Weeds Per Pot: All Weeds (all weeds; [4]): 5.7 | Weeds Per Pot: All Weeds (all weeds; [5]): 4 | Weeds Per Pot: All Weeds (all weeds; [6]): 3.4 | Weeds Per Pot: All Weeds (all weeds; [7]): 24.4 | Weeds Per Pot: All Weeds (all weeds; [8]): 14.9 | Weeds Per Pot: All Weeds (all weeds; [9]): 8.6 | Weeds Per Pot: All Weeds (all weeds; [10]): 7.6 | Weeds Per Pot: All Weeds (all weeds; [11]): 6.7 | Weeds Per Pot: All Weeds (all weeds; [12]): 25.1 | Weeds Per Pot: All Weeds (all weeds; [13]): 15.9 | Weeds Per Pot: All Weeds (all weeds; [14]): 10 | Weeds Per Pot: All Weeds (all weeds; [15]): 8.4 | Weeds Per Pot: All Weeds (all weeds; [16]): 8 | Herbicidal activity of propionic acid alone (all weeds; post-emergence, uncovered pots): demonstrated herbicidal activity on its own | Weeds Per Pot: Yellow Nutsedge (yellow nutsedge; [2]): 2.4 | Weeds Per Pot: Yellow Nutsedge (yellow nutsedge; [3]): 4 | Weeds Per Pot: Yellow Nutsedge (yellow nutsedge; [4]): 1.9 | Weeds Per Pot: Yellow Nutsedge (yellow nutsedge; [5]): 3 | Weeds Per Pot: Yellow Nutsedge (yellow nutsedge; [6]): 2.1 | Weeds Per Pot: Yellow Nutsedge (yellow nutsedge; [7]): 3 | Weeds Per Pot: Yellow Nutsedge (yellow nutsedge; [8]): 4.9 | Weeds Per Pot: Yellow Nutsedge (yellow nutsedge; [9]): 3.3 | Weeds Per Pot: Yellow Nutsedge (yellow nutsedge; [10]): 4.7 | Weeds Per Pot: Yellow Nutsedge (yellow nutsedge; [11]): 3.9 | Weeds Per Pot: Yellow Nutsedge (yellow nutsedge; [12]): 3.1 | Weeds Per Pot: Yellow Nutsedge (yellow nutsedge; [13]): 5.4 | Weeds Per Pot: Yellow Nutsedge (yellow nutsedge; [14]): 4.7 | Weeds Per Pot: Yellow Nutsedge (yellow nutsedge; [15]): 5.3 | Weeds Per Pot: Yellow Nutsedge (yellow nutsedge; [16]): 4.1 | Weeds Per Pot: Morningglory (morningglory; [2]): 7 | Weeds Per Pot: Morningglory (morningglory; [3]): 2.1 | Weeds Per Pot: Morningglory (morningglory; [4]): 0 | Weeds Per Pot: Morningglory (morningglory; [5]): 0 | Weeds Per Pot: Morningglory (morningglory; [6]): 0 | Weeds Per Pot: Morningglory (morningglory; [7]): 7.3 | Weeds Per Pot: Morningglory (morningglory; [8]): 2.1 | Weeds Per Pot: Morningglory (morningglory; [9]): 0 | Weeds Per Pot: Morningglory (morningglory; [10]): 0 | Weeds Per Pot: Morningglory (morningglory; [11]): 0 | Weeds Per Pot: Morningglory (morningglory; [12]): 7.3 | Weeds Per Pot: Morningglory (morningglory; [13]): 2.1 | Weeds Per Pot: Morningglory (morningglory; [14]): 0 | Weeds Per Pot: Morningglory (morningglory; [15]): 0 | Weeds Per Pot: Morningglory (morningglory; [16]): 0

N#CN [Cyanamide, hydrogen cyanamide]
Surviving Nematodes: Spiral (spiral nematodes; [17]): 102 per 100 mL of soil | Surviving Nematodes: Spiral (spiral nematodes; [18]): 95 per 100 mL of soil | Surviving Nematodes: Spiral (spiral nematodes; [19]): 59 per 100 mL of soil | Surviving Nematodes: Spiral (spiral nematodes; [20]): 76 per 100 mL of soil | Surviving Nematodes: Spiral (spiral nematodes; [21]): 18 per 100 mL of soil | Surviving Nematodes: Spiral (spiral nematodes; [22]): 6.7 per 100 mL of soil | Surviving Nematodes: Spiral (spiral nematodes; [23]): 3.7 per 100 mL of soil | Surviving Nematodes: Spiral (spiral nematodes; [24]): 2.9 per 100 mL of soil | Surviving Nematodes: Spiral (spiral nematodes; [25]): 9.8 per 100 mL of soil | Surviving Nematodes: Spiral (spiral nematodes; [26]): 4.7 per 100 mL of soil | Surviving Nematodes in Root System: Spiral (spiral nematodes; [27]): 42.3 Per Pot | Surviving Nematodes in Root System: Spiral (spiral nematodes; [28]): 38.6 Per Pot | Surviving Nematodes in Root System: Spiral (spiral nematodes; [29]): 42 Per Pot | Surviving Nematodes in Root System: Spiral (spiral nematodes; [30]): 28 Per Pot | Surviving Nematodes in Root System: Spiral (spiral nematodes; [31]): 16 Per Pot | Surviving Nematodes: Microbivorous (microbivorous nematodes; [17]): 92 per 100 mL of soil | Surviving Nematodes: Microbivorous (microbivorous nematodes; [18]): 86 per 100 mL of soil | Surviving Nematodes: Microbivorous (microbivorous nematodes; [19]): 96 per 100 mL of soil | Surviving Nematodes: Microbivorous (microbivorous nematodes; [20]): 144 per 100 mL of soil | Surviving Nematodes: Microbivorous (microbivorous nematodes; [21]): 75 per 100 mL of soil | Surviving Nematodes: Microbivorous (microbivorous nematodes; [22]): 132 per 100 mL of soil | Surviving Nematodes: Microbivorous (microbivorous nematodes; [23]): 121 per 100 mL of soil | Surviving Nematodes: Microbivorous (microbivorous nematodes; [24]): 78 per 100 mL of soil | Surviving Nematodes: Microbivorous (microbivorous nematodes; [25]): 99 per 100 mL of soil | Surviving Nematodes: Microbivorous (microbivorous nematodes; [26]): 52 per 100 mL of soil | Surviving Nematodes in Root System: Microbivorous (microbivorous nematodes; [27]): 176.9 Per Pot | Surviving Nematodes in Root System: Microbivorous (microbivorous nematodes; [28]): 126.9 Per Pot | Surviving Nematodes in Root System: Microbivorous (microbivorous nematodes; [29]): 118 Per Pot | Surviving Nematodes in Root System: Microbivorous (microbivorous nematodes; [30]): 113 Per Pot | Surviving Nematodes in Root System: Microbivorous (microbivorous nematodes; [31]): 123 Per Pot | Weeds Per Pot: All Weeds (all weeds; [32]): 6.3 | Weeds Per Pot: All Weeds (all weeds; [33]): 7.7 | Weeds Per Pot: All Weeds (all weeds; [34]): 10.1 | Total weeds per pot (all weeds; [35]): less than ten total weeds per pot | Weeds Per Pot: Yellow Nutsedge (yellow nutsedge; [32]): 2.4 | Weeds Per Pot: Yellow Nutsedge (yellow nutsedge; [33]): 4.6 | Weeds Per Pot: Yellow Nutsedge (yellow nutsedge; [34]): 6 | Yellow nutsedge weeds per pot (yellow nutsedge; [35]): about six or fewer yellow nutsedge weeds per pot | Weeds Per Pot: Morningglory (morningglory; [32]): 3.3 | Weeds Per Pot: Morningglory (morningglory; [33]): 2.7 | Weeds Per Pot: Morningglory (morningglory; [34]): 2.9 | Morningglory weeds per pot (morningglory; [35]): about three or fewer momingglory weeds per pot
